The values below come from EP0088602A2, “Microbiological oxidation process” (EXXON RESEARCH AND ENGINEERING COMPANY, priority 1982, dated 1983).

Where “and” joins values, the source holds several entries; their conditions need not be identical. Equal entries are not always repeated. Where two headings read alike, the source gives them in different places.

Test [1] relates to Methane Monooxygenase from Methylobacterium sp. CRL.26. As to the kind of experiment: Hydroxylation of alkanes / epoxidation of alkenes with NADH2 regenerated by formaldehyde dehydrogenase (Example 12, Table XV). It is filed as biochemical. As to the method:
The vials were incubated at 35 °C on a reciprocating water bath shaker at 50 oscillations per minute. The gaseous phase of the vials was evacuated by vacuum and replaced with a 1 to 1 by volume gaseous mixture of the alkane substrate indicated in Table III to oxygen, at which point the reaction was initiated.
(§1) The rate of oxidation of the alkanes was measured by injecting 1-2 µ 1 samples of the reaction mixture into a gas chromatograph immediately after addition of substrate (zero time) and after 5 and 10 min. of incubation. Specific activities were expressed as nmoles of product formed per min. per mg. of protein, with the higher number representing better conversion. With each substrate, control experiments were conducted in the absence of NADH2, in the absence of oxygen, and using boiled extracts.
(§2) The alcohol products were identified and estimated by retention time comparisons and co-chromatography with authentic standards using flame-ionization gas chromatography. The column temperature was maintained isothermally between 80 °C and 200°C with helium carrier gas flow rates of 20-40 ml per min. The amount of product formed was estimated from peak areas using a standard graph constructed using authentic compounds.
Duplicate measurements were carried out for each substrate. Protein concentrations in cellular fractions were estimated with Folin Ciocalteu reagent as described by O.H. Lowry et al., J. Biol. Chem., 193, 265 (1951), using bovine serum albumin as a standard.

For test [2], the system named is Soluble Methane Monooxygenase from Methylobacterium organophilum (ATCC 27,886). Put plainly: Oxidation of alkanes/alkenes with NADH2 regenerated by formate and NAD+ (Example 20). Type of test: biochemical. As to the method:
(§3) The vials were incubated at 35°C on a reciprocating water bath shaker at 50 oscillations per minute.. The gaseous phase of the vials was evacuated by vacuum and replaced with a gaseous mixture consisting of 1:1 by volume oxygen:the alkane substrate indicated in Table XVIII, at which point the reaction was initiated.
(§4) The rate of oxidation of the alkane substrates was measured either by estimation of products formed or by amount of substrate utilized from the gas or liquid phase. In the former case, 1-2 µ 1 samples of the reaction mixture were injected into a gas chromatograph immediately after addition of substrate (zero time) and after 4 and 8 min. of incubation. Specific activities were expressed as nmoles of product formed per min. per mg of protein, with the higher number representing better conversion. If substrate utilization was the measure of oxidation rate, […] of liquid or 50 Al of gas was injected into the gas chromatograph at zero time and after 4 and 8 min. of incubation of the reaction mixture at 35°C, and specific activities were expressed as the amount of substrate utilized per min. per mg. of protein. Regardless of the procedure employed, control experiments were conducted for each substrate in the absence of NADH2, in the absence of oxygen, and using boiled extracts.
(§5) The alcohol products were identified and estimated by retention time comparisons and co-chromatography with authentic standards using flame-ionization gas chromatography. The column temperature was maintained isothermally between 80°C and 130°C with helium carrier gas flow rates of 20-40 ml per min. The amount of product formed was estimated from peak areas using a standard graph constructed using authentic compounds.
(§6) Duplicate measurements were carried out for each substrate. Protein concentrations in cellular fractions were estimated with Folin Ciocalteu reagent as described by O.H. Lowry et al., supra, using bovine serum albumin as a standard.

The test system is the same in test [3]. Put plainly: Hydroxylation of alkanes / epoxidation of alkenes with NADH2 regenerated by formaldehyde dehydrogenase (Example 21). Type of test: biochemical. The procedure:
as §3, §4, §5, §6

Test [4] has the same test system. Put plainly: Oxidation of alkanes/alkenes with NADH2 regenerated by secondary alcohol dehydrogenase (Example 22). It is filed as biochemical. As to the method:
as §3, §4, §5, §6

Test [5] relates to Soluble Methane Monooxygenase. Put plainly: Effect of potential inhibitors on propylene oxidation by the soluble S(80) fraction (Example 9). It is filed as biochemical, Methylobacterium organophilum (CRL.26). The procedure: (§7) The vials were incubated at 35 °C on a reciprocating water bath shaker at 50 oscillations per minute. […]
[…] Specific activities were expressed as nmoles of product formed per min. per mg. of protein, with the higher number representing better conversion. With each substrate, control experiments were conducted in the absence of NADH2, in the absence of oxygen, and using boiled extracts.
[…] The column temperature was maintained isothermally between 80 °C and 200°C with helium carrier gas flow rates of 20-40 ml per min. The amount of product formed was estimated from peak areas using a standard graph constructed using authentic compounds.
(§8) Duplicate measurements were carried out for each substrate.

Test [6] has as its target T1, soluble methane monooxygenase from Methylococcus capsulatus (Bath) (Methylococcus capsulatus, UniProt P22869). As to conditions: cited from earlier work.
In test [7] the target is soluble methane monooxygenase from Methylosinus trichosporium (OB3b) (Methylosinus trichosporium, UniProt P27353). Particulars: cited from earlier work.
Chain of soluble methane monooxygenase from Methylosinus trichosporium (OB3b) (P27354 whole entry): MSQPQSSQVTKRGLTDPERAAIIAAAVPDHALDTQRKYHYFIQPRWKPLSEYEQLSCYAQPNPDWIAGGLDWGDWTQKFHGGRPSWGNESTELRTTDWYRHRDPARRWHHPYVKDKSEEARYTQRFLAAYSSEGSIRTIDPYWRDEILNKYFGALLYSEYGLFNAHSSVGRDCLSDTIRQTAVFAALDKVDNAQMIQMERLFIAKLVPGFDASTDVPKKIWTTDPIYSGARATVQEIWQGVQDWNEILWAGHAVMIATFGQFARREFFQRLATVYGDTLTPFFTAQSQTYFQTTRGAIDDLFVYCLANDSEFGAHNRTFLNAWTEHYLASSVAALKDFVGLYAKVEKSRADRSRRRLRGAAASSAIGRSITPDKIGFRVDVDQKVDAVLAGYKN
Chain of soluble methane monooxygenase from Methylosinus trichosporium (OB3b) (P27355 whole entry, further chain): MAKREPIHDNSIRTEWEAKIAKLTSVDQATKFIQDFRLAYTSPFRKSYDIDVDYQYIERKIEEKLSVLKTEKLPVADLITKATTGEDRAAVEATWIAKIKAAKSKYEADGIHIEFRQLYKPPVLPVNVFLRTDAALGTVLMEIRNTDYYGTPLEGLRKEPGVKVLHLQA
Chain of soluble methane monooxygenase from Methylosinus trichosporium (OB3b) (P27353 whole entry): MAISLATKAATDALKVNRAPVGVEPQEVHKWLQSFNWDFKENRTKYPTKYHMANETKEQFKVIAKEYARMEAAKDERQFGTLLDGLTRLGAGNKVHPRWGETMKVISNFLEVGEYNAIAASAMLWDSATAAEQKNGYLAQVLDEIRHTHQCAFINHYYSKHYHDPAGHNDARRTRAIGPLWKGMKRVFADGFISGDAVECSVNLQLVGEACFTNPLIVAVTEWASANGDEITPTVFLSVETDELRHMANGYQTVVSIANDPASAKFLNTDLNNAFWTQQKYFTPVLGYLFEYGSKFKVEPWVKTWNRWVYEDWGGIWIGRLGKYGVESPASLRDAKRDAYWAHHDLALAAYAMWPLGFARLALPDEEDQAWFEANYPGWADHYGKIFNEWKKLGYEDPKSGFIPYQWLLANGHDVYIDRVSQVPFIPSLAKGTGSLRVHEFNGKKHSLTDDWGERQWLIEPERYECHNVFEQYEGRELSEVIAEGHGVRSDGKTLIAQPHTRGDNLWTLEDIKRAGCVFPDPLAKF
Test [8] addresses T1, soluble methane monooxygenase from Methylococcus capsulatus (Bath). Type of test: biochemical. Also on record: host or cells: soluble fraction of Methylococcus capsulatus Strain Bath. Particulars: comparison with CRL.26 in Example 9.
The test system of test [9] is Soluble Methane Monooxygenase. Put plainly: Effect of various cofactor systems on propylene oxidation by the soluble S(80) fraction (Examples 7, 11). Particulars: propylene substrate; for Specific Activity: cofactor system at 2.5 mM; for suitability as cofactor system / electron donor (in words): replacing NADH2. It is filed as biochemical, Methylobacterium organophilum (CRL.26). The procedure:
as §7, §1, §2, §8

Test [10] concerns Secondary Alcohol Dehydrogenase. As to the kind of experiment: Dehydrogenation of the secondary alcohol in the coupled reaction (Example 22). Particulars: NAD^+. It is filed as biochemical, yeast Pichia sp. As to the method: The procedure of Example 15 was followed using 1.0 ml of a reaction mixture consisting of 50 µ moles potassium phosphate buffer at pH 7.0, 10 µ moles NAD^+, 10 µ moles secondary alcohol (either 2-butanol or 2-propanol), and, as the remainder, secondary alcohol dehydrogenase from yeast Pichia sp. and the soluble S(80) fraction obtained as described in Example 14. The dehydrogenase was previously purified as described in Patel et al., Eur. J. Biochem., 101, 401 (1979).

Test [11] deals with soluble methane monooxygenase. As to the kind of experiment: Other electron donors in place of NADH2 (Example 23). Type of test: biochemical, Methylobacterium organophilum (ATCC 27,886). Particulars: as electron donor replacing NADH2 in the procedure of Example 15. The procedure: as §3, §4
Setting [12] is: inhibitor 1 mM, incubated at 0°C for 15 min, propylene substrate, percentage of control (100%) containing no inhibitor.
Setting [13] is: inhibitor 1 mM, incubated at 0°C for 15 min, propylene substrate, percentage of control containing no inhibitor.
[14] abbreviates: inhibitor 0.1 mM, incubated at 0°C for 15 min, propylene substrate, percentage of control (100%) containing no inhibitor.
[15] abbreviates: inhibitor 0.1 mM, incubated at 0°C for 15 min, propylene substrate, percentage of control containing no inhibitor.

T1 sequence (P22869 whole entry): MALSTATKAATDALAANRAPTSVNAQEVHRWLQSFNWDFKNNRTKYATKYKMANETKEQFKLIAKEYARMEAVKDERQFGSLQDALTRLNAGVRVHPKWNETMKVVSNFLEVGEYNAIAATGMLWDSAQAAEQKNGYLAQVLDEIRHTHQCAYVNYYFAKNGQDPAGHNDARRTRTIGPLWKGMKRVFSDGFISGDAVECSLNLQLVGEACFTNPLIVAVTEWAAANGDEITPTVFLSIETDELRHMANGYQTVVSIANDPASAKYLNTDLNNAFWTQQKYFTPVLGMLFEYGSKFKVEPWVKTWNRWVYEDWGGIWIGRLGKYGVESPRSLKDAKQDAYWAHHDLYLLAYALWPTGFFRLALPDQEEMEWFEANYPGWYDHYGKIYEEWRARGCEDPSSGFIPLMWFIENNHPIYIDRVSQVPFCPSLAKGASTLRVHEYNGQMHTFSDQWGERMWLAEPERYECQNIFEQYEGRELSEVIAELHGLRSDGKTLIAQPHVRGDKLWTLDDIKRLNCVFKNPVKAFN
T1 sequence (P18798 whole entry, further chain): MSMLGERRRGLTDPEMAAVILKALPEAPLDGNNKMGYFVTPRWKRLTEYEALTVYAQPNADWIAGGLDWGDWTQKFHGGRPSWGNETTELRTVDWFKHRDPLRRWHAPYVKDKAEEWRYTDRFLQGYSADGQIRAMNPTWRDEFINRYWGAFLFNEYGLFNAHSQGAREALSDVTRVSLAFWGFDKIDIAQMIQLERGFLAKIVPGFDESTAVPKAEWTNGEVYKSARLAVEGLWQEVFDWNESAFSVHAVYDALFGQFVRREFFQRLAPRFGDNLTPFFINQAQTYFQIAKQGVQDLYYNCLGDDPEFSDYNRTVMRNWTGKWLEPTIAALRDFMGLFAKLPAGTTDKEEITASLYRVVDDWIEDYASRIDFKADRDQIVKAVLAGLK
T1 sequence (P11987 whole entry, further chain): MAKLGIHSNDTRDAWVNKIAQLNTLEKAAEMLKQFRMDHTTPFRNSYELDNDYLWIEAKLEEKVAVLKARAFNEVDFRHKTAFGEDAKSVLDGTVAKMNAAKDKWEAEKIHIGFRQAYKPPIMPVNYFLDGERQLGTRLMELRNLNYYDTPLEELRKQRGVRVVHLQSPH

Regarding `C=C` [Ethylene], the “Rate of Product Formation” value in test [1] (pH 7) is on record as 140 nmoles/min/mg protein; in test [2] (pH 7), 28 nmoles/ min/mg of protein; in [3] (pH 7) it was 28 nmoles/ min/mg of protein; in test [4], 25 nmoles/ min/mg of protein.
On to `Oc1cccc2cccnc12` [8-Hydroxyquinoline], for which, in test [5], the “Activity (%)” value was found to be 117%, the “Inhibition (%)” value came to 0% and the “inhibition of soluble methane monooxygenase activity (in words)” value is “not inhibitory”. In addition, the “inhibition of soluble methane monooxygenase (in words)” value in [6] is “strongly inhibits”. Also, the “inhibition of soluble methane monooxygenase (in words)” value in [7] was “strongly inhibits”.
For `c1cnc2c(c1)ccc1cccnc12` [1,10-Phenanthroline], the “inhibition of soluble methane monooxygenase activity (in words)” value in [5] is on record as “not inhibited”. In addition, in test [5] (setting [12]), the “Activity (%)” value is on record as 67%. Moreover, the “Inhibition (%)” value in test [5] (setting [13]) is listed as 33%. The “inhibited activity of Methylobacterium organophilum (CRL.26)” value in test [5] (statement in the text of Example 9) is “about 30%”. In test [8], the “inhibition of the activity of Methylococcus capsulatus (Bath) (in words)” value is “did not inhibit”.
With Acriflavin, the “inhibition of soluble methane monooxygenase activity (in words)” value in test [5] is “inhibit”. Further, the “Activity (%)” value in test [5] (setting [14]) stood at 71%. Further, in test [5] (setting [15]), the “Inhibition (%)” value turned out to be 29%.
Consider `NC(=O)C1=CN([C@@H]2O[C@H](COP(=O)(O)OP(=O)(O)OC[C@H]3O[C@@H](n4cnc5c(N)ncnc54)[C@H](OP(=O)(O)O)[C@@H]3O)[C@@H](O)[C@H]2O)C=CC1` [NADPH2, nicotinamide adenine dinucleotide phosphate in the reduced form], for which, in [9], the “Specific Activity” value is given as 70 nmoles/min/mg of protein and the “suitability as cofactor system / electron donor (in words)” value is “suitable”.
For the molecule `CC(C)O` [2-Propanol], the “Rate of Product Formation” value in test [4] (product 2-Butanone, substrates Butane and 2-Propanol, NAD^+, secondary alcohol dehydrogenase) is 10 nmoles/ min/mg of protein; in test [10] (product Acetone, substrates Butane and 2-Propanol) it was 45 nmoles/ min/mg of protein; in test [10] (product Acetone, substrates Isobutylene and 2-Propanol) it was 45 nmoles/ min/mg of protein.
For the molecule `C=C(C)C` [Isobutylene], the “Rate of Product Formation” value in test [4] (product Epoxyisobutylene, substrates Isobutylene and 2-Propanol, NAD^+, secondary alcohol dehydrogenase) was 29 nmoles/ min/mg of protein.
For the molecule `CCCC` [Butane], the “Rate of Product Formation” value is 250 nmoles/min/mg protein and 150 nmoles/min/mg protein in [1] (pH 7); 20 nmoles/ min/mg of protein and 10 nmoles/ min/mg of protein in [3] (pH 7); 15 nmoles/ min/mg of protein in test [4].
2-Butanol: the “Rate of Product Formation” value in test [4] (product Acetone, substrates Propane and 2-Butanol, NAD^+, secondary alcohol dehydrogenase) is given as 18 nmoles/ min/mg of protein; in test [10] (product 2-Butanone, substrates Ethane and 2-Butanol), 48 nmoles/ min/mg of protein; in test [10] (product 2-Butanone, substrates Ethylene and 2-Butanol), 45 nmoles/ min/mg of protein; in test [10] (product 2-Butanone, substrates Methane and 2-Butanol), 50 nmoles/ min/mg of protein; in test [10] (product 2-Butanone, substrates Propane and 2-Butanol) it was 45 nmoles/ min/mg of protein; in [10] (product 2-Butanone, substrates Propylene and 2-Butanol) it was 50 nmoles/ min/mg of protein.
Take `NC(=O)C1=CN([C@@H]2O[C@H](COP(=O)(O)OP(=O)(O)OC[C@H]3O[C@@H](n4cnc5c(N)ncnc54)[C@H](O)[C@@H]3O)[C@@H](O)[C@H]2O)C=CC1` [NADH2, nicotinamide adenine dinucleotide in the reduced form]: in test [9], the “Specific Activity” value is on record as 100 nmoles/min/mg of protein and the “suitability as cofactor system / electron donor (in words)” value was “suitable”. For the same molecule, in test [11], the “soluble methane monooxygenase activity observed” value is listed as “about 70%”.
With `C=CCC` [1-Butene], the “Rate of Product Formation” value in [1] (pH 7) is 180 nmoles/min/mg protein; in test [2] (pH 7), 35 nmoles/ min/mg of protein.
`C=CC` [Propylene]: the “uninhibited rate of propylene oxidation” value in test [5] (no inhibitor, substrate propylene) is “(b) The uninhibited rate of propylene oxidation was 100 nmoles of propylene oxide produced/min/mg of protein”. The “Rate of Product Formation” value is recorded as 250 nmoles/min/mg protein in test [1] (product Propylene Oxide, NAD^+, formaldehyde, reduced glutathione, formaldehyde dehydrogenase, pH 7.0); 54 nmoles/ min/mg of protein in [2] (product Propylene Oxide, NAD^+ and sodium formate, pH 7.0); 52 nmoles/ min/mg of protein in test [3] (product Propylene Oxide, NAD^+, reduced glutathione, formaldehyde, formaldehyde dehydrogenase, pH 7.0); 48 nmoles/ min/mg of protein in test [4] (product Propylene oxide, substrates Propylene and 2-Butanol, NAD^+, secondary alcohol dehydrogenase).
`CC` [Ethane]: the “Rate of Product Formation” value in test [1] (product Ethanol, NAD^+, formaldehyde, reduced glutathione, formaldehyde dehydrogenase, pH 7.0) was determined as 145 nmoles/min/mg protein.
Regarding `NC(=O)CI` [Iodoacetamide], the “inhibition of soluble methane monooxygenase activity (in words)” value in test [5] is recorded as “inhibit”. For the same molecule, the “Activity (%)” value in test [5] (setting [12]) is 20%. Further, the “Inhibition (%)” value in [5] (setting [13]) worked out at 80%.
`CCN1C(=O)C=CC1=O` [N-Ethylmaleimide]: the “Activity (%)” value in test [5] (setting [12]) was found to be 102%. Also, the “Inhibition (%)” value in [5] (setting [13]) stood at 0%.
In the case of `C` [Methane], in [1] (product Methanol, NAD^+, formaldehyde, reduced glutathione, formaldehyde dehydrogenase from Pichia sp., pH 7.0), the “Rate of Product Formation” value is 128 nmoles/min/mg protein.
Take `O=C(O)c1cc(SSc2ccc([N+](=O)[O-])c(C(=O)O)c2)ccc1[N+](=O)[O-]` [5,5'-dithiobis-2-nitrobenzoate]: in [5], the “inhibition of soluble methane monooxygenase activity (in words)” value was “inhibit”. Besides, the “Activity (%)” value in test [5] (setting [12]) was determined as 38%. In addition, in [5] (setting [13]), the “Inhibition (%)” value amounted to 62%.
Taken in the same sequence, the figures for `NNC(N)=S` [Thiosemicarbazide] were “not inhibited”, 108% and 0%.
Turning to `CCC` [Propane], the “Rate of Product Formation” value amounted to 60 nmoles/min/mg protein in test [1] (product Propan-1-ol, NAD^+, formaldehyde, reduced glutathione, formaldehyde dehydrogenase, pH 7.0) and 95 nmoles/min/mg protein in [1] (product Propan-2-ol, NAD^+, formaldehyde, reduced glutathione, formaldehyde dehydrogenase, pH 7.0).
With `O=C(O)c1cc[c]([Hg+])cc1.[OH-]` [p-Hydroxymercuribenzoate], in [5] (setting [14]), the “Activity (%)” value was 100%. Also, the “Inhibition (%)” value in test [5] (setting [15]) was found to be 0%.
